From ChEMBL document CHEMBL5303573, “Mapping human microbiome drug metabolism by gut bacteria and their genes” (Nature, 2019)

Experiments:
Assay type in all cases: ADME
Set-up in all cases: dose 2 uM
Conditions in all cases: 2 µM
[1] = target: T1, Lipolytic enzyme, G-D-S-L family (Bacteroides thetaiotaomicron, UniProt Q8A0C5); assay: (§1) The drug is tested on Bacteroides thetaiotaomicron strain: VPI-5482 for biotransformation. The drug concentrations were measured before and after a 12-h incubation by liquid-chromatography-coupled mass spectrometry (LC–MS)
T1 sequence (Q8A0C5 whole entry): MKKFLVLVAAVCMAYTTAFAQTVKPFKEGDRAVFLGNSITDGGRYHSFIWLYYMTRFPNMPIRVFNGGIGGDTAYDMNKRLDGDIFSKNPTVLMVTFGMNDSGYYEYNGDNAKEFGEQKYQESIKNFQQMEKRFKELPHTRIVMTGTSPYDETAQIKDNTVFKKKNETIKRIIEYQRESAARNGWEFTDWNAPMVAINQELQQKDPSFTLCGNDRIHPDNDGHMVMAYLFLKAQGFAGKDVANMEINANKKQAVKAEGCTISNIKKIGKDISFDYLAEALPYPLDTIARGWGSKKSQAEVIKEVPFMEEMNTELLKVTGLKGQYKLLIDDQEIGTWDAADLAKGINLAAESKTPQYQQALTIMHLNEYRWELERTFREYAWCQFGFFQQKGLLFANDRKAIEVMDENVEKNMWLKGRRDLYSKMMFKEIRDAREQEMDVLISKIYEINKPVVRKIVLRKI

[2] = target: T2, Endoglucanase E (EGE) (Bacteroides thetaiotaomicron, UniProt Q8AAL9); assay: as §1
T2 sequence (Q8AAL9 whole entry): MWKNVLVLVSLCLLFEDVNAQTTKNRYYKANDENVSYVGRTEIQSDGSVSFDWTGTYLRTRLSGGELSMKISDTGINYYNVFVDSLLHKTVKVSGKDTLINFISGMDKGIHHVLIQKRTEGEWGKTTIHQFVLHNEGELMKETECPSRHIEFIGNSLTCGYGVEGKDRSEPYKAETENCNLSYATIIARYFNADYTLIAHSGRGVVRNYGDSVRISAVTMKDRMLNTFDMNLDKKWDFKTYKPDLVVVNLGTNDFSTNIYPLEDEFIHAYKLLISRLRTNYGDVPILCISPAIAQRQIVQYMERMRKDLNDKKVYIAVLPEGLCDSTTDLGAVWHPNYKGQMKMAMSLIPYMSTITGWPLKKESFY

[3] = target: T3, 3-oxo-5-alpha-steroid 4-dehydrogenase (Bacteroides thetaiotaomicron, UniProt Q8A618); assay: as §1
T3 sequence (Q8A618 whole entry): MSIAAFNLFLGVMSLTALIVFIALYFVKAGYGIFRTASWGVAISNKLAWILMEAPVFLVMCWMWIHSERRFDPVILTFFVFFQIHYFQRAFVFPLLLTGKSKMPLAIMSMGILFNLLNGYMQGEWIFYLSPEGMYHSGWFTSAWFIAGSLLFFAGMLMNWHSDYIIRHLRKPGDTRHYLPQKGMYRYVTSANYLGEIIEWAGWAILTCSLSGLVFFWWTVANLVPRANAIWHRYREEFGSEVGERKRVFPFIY

[4] = target: General stress protein (Bacteroides thetaiotaomicron, UniProt Q8A7U5); assay: as §1
[5] = target: T4, NADH dehydrogenase/NAD(P)H nitroreductase (Bacteroides thetaiotaomicron, UniProt Q8A8L9); assay: as §1
T4 sequence (Q8A8L9 whole entry): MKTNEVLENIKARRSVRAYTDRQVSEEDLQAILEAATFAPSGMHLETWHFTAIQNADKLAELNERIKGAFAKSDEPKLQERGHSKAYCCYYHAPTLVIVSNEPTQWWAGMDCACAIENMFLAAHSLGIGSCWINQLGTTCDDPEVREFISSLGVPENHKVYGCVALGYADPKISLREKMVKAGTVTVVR

[6] = target: T5, Regulatory protein (Bacteroides thetaiotaomicron, UniProt Q8A576); assay: as §1
T5 sequence (Q8A576 whole entry): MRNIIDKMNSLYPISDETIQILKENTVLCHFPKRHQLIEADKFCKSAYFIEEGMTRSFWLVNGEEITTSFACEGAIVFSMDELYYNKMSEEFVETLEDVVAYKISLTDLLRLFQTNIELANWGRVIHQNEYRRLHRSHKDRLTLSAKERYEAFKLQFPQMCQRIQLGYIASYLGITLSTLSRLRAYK

[7] = target: T6, Nitroreductase (Bacteroides thetaiotaomicron, UniProt Q8A911); assay: as §1
T6 sequence (Q8A911 whole entry): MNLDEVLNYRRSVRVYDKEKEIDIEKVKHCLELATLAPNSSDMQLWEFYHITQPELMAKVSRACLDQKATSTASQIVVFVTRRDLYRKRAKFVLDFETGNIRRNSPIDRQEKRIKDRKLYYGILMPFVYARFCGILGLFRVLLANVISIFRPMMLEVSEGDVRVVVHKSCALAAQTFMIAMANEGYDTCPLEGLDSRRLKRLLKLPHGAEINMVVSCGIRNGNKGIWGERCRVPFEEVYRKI

[8] = target: T7, Acetyl esterase (Acetylxylosidase) (Bacteroides thetaiotaomicron, UniProt Q8ABF8); assay: as §1
T7 sequence (Q8ABF8 whole entry): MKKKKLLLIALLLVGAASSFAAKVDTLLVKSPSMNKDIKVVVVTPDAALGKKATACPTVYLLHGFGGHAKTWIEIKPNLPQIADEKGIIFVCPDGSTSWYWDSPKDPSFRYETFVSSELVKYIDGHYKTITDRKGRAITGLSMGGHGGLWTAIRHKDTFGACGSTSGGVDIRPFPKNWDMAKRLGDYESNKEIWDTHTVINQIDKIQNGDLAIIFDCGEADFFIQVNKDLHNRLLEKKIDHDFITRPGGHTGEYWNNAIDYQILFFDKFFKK

[9] = target: T8, Xylanase (Bacteroides thetaiotaomicron, UniProt Q8A8H5); assay: as §1
T8 sequence (Q8A8H5 whole entry): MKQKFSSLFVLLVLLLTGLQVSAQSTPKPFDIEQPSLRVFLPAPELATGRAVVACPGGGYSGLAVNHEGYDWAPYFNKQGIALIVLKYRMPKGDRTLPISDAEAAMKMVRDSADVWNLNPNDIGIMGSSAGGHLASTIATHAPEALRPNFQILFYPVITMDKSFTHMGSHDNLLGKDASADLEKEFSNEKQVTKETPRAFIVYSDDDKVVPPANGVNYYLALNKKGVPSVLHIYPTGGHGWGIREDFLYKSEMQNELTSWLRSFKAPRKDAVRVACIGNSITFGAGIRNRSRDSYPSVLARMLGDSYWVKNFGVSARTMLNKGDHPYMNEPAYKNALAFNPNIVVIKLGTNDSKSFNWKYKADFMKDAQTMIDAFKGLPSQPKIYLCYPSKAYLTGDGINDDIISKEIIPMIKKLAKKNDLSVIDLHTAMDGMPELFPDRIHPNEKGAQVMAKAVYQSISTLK

General stress protein, sequence (Q8A7U5 1-138, change not shown): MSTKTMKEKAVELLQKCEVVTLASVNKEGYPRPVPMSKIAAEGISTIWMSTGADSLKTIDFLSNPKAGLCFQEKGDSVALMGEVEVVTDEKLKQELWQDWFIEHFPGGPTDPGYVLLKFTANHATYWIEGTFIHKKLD

| SMILES | Bacterial Biotransformation [1] | Bacterial Biotransformation [2] | Bacterial Biotransformation [3] | Bacterial Biotransformation [4] | Bacterial Biotransformation [5] | Bacterial Biotransformation [6] | Bacterial Biotransformation [7] | Bacterial Biotransformation [8] | Bacterial Biotransformation [9] |
| --- | --- | --- | --- | --- | --- | --- | --- | --- | --- |
| CC(=O)OCC(=O)[C@@]1(OC(C)=O)[C@@H](C)C[C@H]2[C@@H]3C[C@H](F)C4=CC(=O)C=C[C@]4(C)[C@@]3(F)[C@@H](O)C[C@@]21C [DIFLORASONE DIACETATE] | Compound metabolized | Compound NOT metabolized | Compound NOT metabolized | Compound NOT metabolized | Compound NOT metabolized | Compound NOT metabolized | Compound NOT metabolized | Compound NOT metabolized | Compound NOT metabolized |
| COc1ccc([C@@H]2Sc3ccccc3N(CCN(C)C)C(=O)[C@@H]2OC(C)=O)cc1 [DILTIAZEM] | Compound metabolized | Compound NOT metabolized | Compound NOT metabolized | Compound NOT metabolized | Compound NOT metabolized | Compound NOT metabolized | Compound NOT metabolized | Compound NOT metabolized | Compound NOT metabolized |
| CC(=O)OCC(CCn1cnc2cnc(N)nc21)COC(C)=O [FAMCICLOVIR] | Compound metabolized | Compound NOT metabolized | Compound NOT metabolized | Compound NOT metabolized | Compound NOT metabolized | Compound NOT metabolized | Compound NOT metabolized | Compound metabolized | Compound NOT metabolized |
| C#C[C@]1(O)CC[C@H]2[C@@H]3CCC4=CC(=O)CC[C@@H]4[C@H]3CC[C@@]21CC [LEVONORGESTREL] | Compound NOT metabolized | Compound NOT metabolized | Compound metabolized | Compound NOT metabolized | Compound NOT metabolized | Compound NOT metabolized | Compound NOT metabolized | Compound NOT metabolized | Compound NOT metabolized |
| C#C[C@]1(OC(C)=O)CC[C@H]2[C@@H]3CCC4=CC(=O)CC[C@@H]4[C@H]3CC[C@@]21C [NORETHINDRONE ACETATE] | Compound NOT metabolized | Compound NOT metabolized | Compound metabolized | Compound NOT metabolized | Compound NOT metabolized | Compound NOT metabolized | Compound NOT metabolized | Compound NOT metabolized | Compound NOT metabolized |
| N#Cc1ccc2c(c1)N(CCCN1CCC(O)CC1)c1ccccc1S2 [PERICIAZINE] | Compound NOT metabolized | Compound NOT metabolized | Compound NOT metabolized | Compound NOT metabolized | Compound NOT metabolized | Compound NOT metabolized | Compound NOT metabolized | Compound NOT metabolized | Compound NOT metabolized |
